Source: article PMC8345219 (Cancers, 2021)
*1 amine or outer side, *2 acyl side, *3 side chain or, on linkers, in order; H or OH if unused. Where a SMILES comes first, the peptide text is derived from it. Bridges are numbered along the chain shown (N, C = ends). [ ]: non-standard residue; d: D form. The star is where a group is joined. X1 = CN(C)c1ccc2c(c1)Oc1cc(N(C)C)ccc1C21OC(=O)c2ccc(C(=O)*)cc21; hCys = N[C@@H](CCS)C(=O)O; CH2 = C([*:1])[*:2]

Experiment: Investigation of plasma stability (Tam-labeled peptides, RP-HPLC)
Assay type: in vitro ADME
Details: Tam-modified peptides, 10^−5 M in human blood plasma, 37 °C; one-phase decay
Description: Investigation of peptide stability in blood plasma was carried out as described previously [22]. Tam-labeled peptides were dissolved in human blood plasma at a concentration of 10^−5 M and incubated at 37 °C and 250 rpm. Samples taken at the respective time points were added to a solution of 0.1% SDS in ACN/EtOH (1:1). After incubation at −20 °C for 20 min, the supernatant was transferred to a new tube and incubated again at −20 °C for at least 3 h. […] Peaks were integrated, and the peak containing the intact peptide was normalized to the sample taken at t = 0 min (100%). Plasma half-life was determined using one-phase decay in Prism 5 (GraphPad, San Diego, CA, USA).

half-life [min]	SMILES
> 1440	C[C@@H]1NC(=O)[C@H](Cc2ccccc2)NC(=O)[C@H](CCC(N)=O)NC(=O)[C@H](NC(=O)[C@@H]2CCCN2C(=O)[C@H](Cc2ccccc2)NC(=O)[C@H](Cc2ccc(O)cc2)NC(=O)c2ccc3c(c2)C2(OC3=O)c3ccc(N(C)C)cc3Oc3cc(N(C)C)ccc32)CSSC[C@@H](C(=O)O)NC(=O)[C@H](Cc2ccccc2)NC1=O [Compound 4T, Tam-YFP(cQFAFC)] (X1-YFP[dC]QFAFC-OH; disulfide 4-9)
> 1440	C[C@@H]1NC(=O)[C@H](Cc2ccccc2)NC(=O)[C@H](CCC(N)=O)NC(=O)[C@H](NC(=O)[C@@H]2CCCN2C(=O)[C@H](Cc2ccccc2)NC(=O)[C@H](Cc2ccc(O)cc2)NC(=O)c2ccc3c(c2)C2(OC3=O)c3ccc(N(C)C)cc3Oc3cc(N(C)C)ccc32)CSCSCC[C@@H](C(=O)O)NC(=O)[C@H](Cc2ccccc2)NC1=O [Compound 6T, Tam-YFP(c(CH2)QFAFX)] (X1-YFP[dC]QFAF[hCys]-OH; linker 4-9 via CH2)
45	CN(C)c1ccc2c(c1)Oc1cc(N(C)C)ccc1C21OC(=O)c2ccc(C(=O)N[C@@H](Cc3ccc(O)cc3)C(=O)N[C@@H](Cc3ccccc3)C(=O)N3CCC[C@H]3C(=O)N[C@@H]3CSSC[C@@H](C(=O)N[C@@H](Cc4ccccc4)C(=O)N[C@@H](CO)C(=O)O)NC(=O)[C@H](Cc4ccccc4)NC(=O)[C@H](CCC(N)=O)NC3=O)cc21 [Compound 2T, Tam-YFP(cQFCFS)] (X1-YFP[dC]QFCFS-OH; disulfide 4-7)
> 1440	C[C@@H]1NC(=O)[C@H](Cc2ccccc2)NC(=O)[C@H](CCC(N)=O)NC(=O)[C@H](NC(=O)[C@@H]2CCCN2C(=O)[C@H](Cc2ccccc2)NC(=O)[C@H](Cc2ccc(O)cc2)NC(=O)c2ccc3c(c2)C2(OC3=O)c3ccc(N(C)C)cc3Oc3cc(N(C)C)ccc32)CSCSC[C@@H](C(=O)O)NC(=O)[C@H](Cc2ccccc2)NC1=O [Compound 5T, Tam-YFP(c(CH2)QFAFC)] (X1-YFP[dC]QFAFC-OH; linker 4-9 via CH2)
18	CN(C)c1ccc2c(c1)Oc1cc(N(C)C)ccc1C21OC(=O)c2ccc(C(=O)N[C@@H](Cc3ccc(O)cc3)C(=O)N[C@@H](Cc3ccccc3)C(=O)N3CCC[C@H]3C(=O)N[C@@H]3CSCSC[C@@H](C(=O)N[C@@H](Cc4ccccc4)C(=O)N[C@@H](CO)C(=O)O)NC(=O)[C@H](Cc4ccccc4)NC(=O)[C@H](CCC(N)=O)NC3=O)cc21 [Compound 3T, Tam-YFP(c(CH2)QFCFS)] (X1-YFP[dC]QFCFS-OH; linker 4-7 via CH2)

SMILES	half-life [min]
CN(C)c1ccc2c(c1)Oc1cc(N(C)C)ccc1C21OC(=O)c2ccc(C(=O)NCCCC[C@@H]3NC(=O)[C@H](Cc4ccccc4)NC(=O)[C@H](CCC(N)=O)NC(=O)[C@H](NC(=O)[C@@H]4CCCN4C(=O)[C@H](Cc4ccccc4)NC(=O)[C@H](N)Cc4ccc(O)cc4)CSSC[C@@H](C(=O)O)NC(=O)[C@H](Cc4ccccc4)NC3=O)cc21 [Compound 8T, yFP(cQFK(Tam)FC)] (H-[dY]FP[dC]QFK(X1)FC-OH; disulfide 4-9)	> 1440
CN(C)c1ccc2c(c1)Oc1cc(N(C)C)ccc1C21OC(=O)c2ccc(C(=O)NCCCC[C@@H]3NC(=O)[C@H](Cc4ccccc4)NC(=O)[C@H](CCC(N)=O)NC(=O)[C@H](NC(=O)[C@@H]4CCCN4C(=O)[C@H](Cc4ccccc4)NC(=O)[C@@H](N)Cc4ccc(O)cc4)CSSC[C@@H](C(=O)O)NC(=O)[C@H](Cc4ccccc4)NC3=O)cc21 [Compound 7T, YFP(cQFK(Tam)FC)] (H-YFP[dC]QFK(X1)FC-OH; disulfide 4-9)	< 12
